Experimental data reported in the supplement of paper PMC11208160.

Experiment: recombinant UMI read abundance after kanamycin selection (control-corrected) (log10(CPM+1)); higher = more efficient recombination; extreme values may be limits of the assay; sequences stand for … in AGTGCAGAGAAAATCGGCCAGTTTTCTCTGCCTGCAGTCCGCATGCCGTGGGACCCCTTGGGTTCTAACCTGTTGCCTAGATTTATGCAGCGGACTGCCTTTCTCCCAAAGTGATAAACCGG…AGGTTGGTTTCACT; site = the 11-nt donor
Method in brief: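 Values are reported as log10(CPM+1), obtained by converting sequencing counts to CPM, averaging replicates and scaling by control-derived factors. The counts came from recombinant UMIs amplified by PCR across the donor–target junction. These UMIs came from a pooled Escherichia coli screen of donor and donor-binding-loop pairs for the IS621 bridge recombinase, plated with IPTG (0.07 mM) plus kanamycin or left unselected, in two replicates each.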
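Also: IS621 bridge recombinase in Escherichia coli cells against a fixed T5 target plasmid.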

Sequence | recombinant UMI read abundance (log10)
GGGGAACCATGGACCGGTTTTCCCGGTAATCCGTATTTGAT (site CGGGAACCTAT) | 0
GGGGAACCATGGACCGGTTTTCCCGGTAATCCGTATTTGAT (site GGGGAACCTAT) | 0
GGGGAACCATGGACCGGTTTTCCCGGTAATCCGTATTTGAT (site TGGGAACCTAT) | 0
GGGGACTCATGGACCGGTTTTCCCGGTAATCCGTATTTGCA (site GGGGACTCTTG) | 1.89
GGGGAGACATGGACCGGTTTTCCCGGTAATCCGTATTTGCC (site GGGGAGACTGG) | 2.07
GGGGATGCATGGACCGGTTTTCCCGGTAATCCGTATTTGGC (site GGGGATGCTGC) | 0
GGGGCACCATGGACCGGTTTTCCCGGTAATCCGTATTTGTA (site GGGGCACCTTA) | 0
GGGGCACCATGGACCGGTTTTCCCGGTAATCCGTATTTGTA (site GGGGCACCTTC) | 0.0203
GGGGCACCATGGACCGGTTTTCCCGGTAATCCGTATTTGTA (site GGGGCACCTTG) | 0.00274
GGGGCACCATGGACCGGTTTTCCCGGTAATCCGTATTTGTA (site GGGGCACCTTT) | 0.0754
GGGGCAGCATGGACCGGTTTTCCCGGTAATCCGTATTTGCA (site GGGGCAACTTG) | 1.47
GGGGCAGCATGGACCGGTTTTCCCGGTAATCCGTATTTGCA (site GGGGCACCTTG) | 0
GGGGCAGCATGGACCGGTTTTCCCGGTAATCCGTATTTGCA (site GGGGCAGCTTG) | 2.13
GGGGCAGCATGGACCGGTTTTCCCGGTAATCCGTATTTGCA (site GGGGCATCTTG) | 0.336
GGGGCCCCATGGACCGGTTTTCCCGGTAATCCGTATTTGGC (site GGGGCCCCTGC) | 0
GGGGCGCCATGGACCGGTTTTCCCGGTAATCCGTATTTGCA (site GGGGCACCTTG) | 0.0167
GGGGCGCCATGGACCGGTTTTCCCGGTAATCCGTATTTGCA (site GGGGCCCCTTG) | 0
GGGGCGCCATGGACCGGTTTTCCCGGTAATCCGTATTTGCA (site GGGGCGCCTTG) | 0.0101
GGGGCGCCATGGACCGGTTTTCCCGGTAATCCGTATTTGCA (site GGGGCTCCTTG) | 0
GGGGCTCCATGGACCGGTTTTCCCGGTAATCCGTATTTGCA (site GGGGCACCTTG) | 0.0623
GGGGCTCCATGGACCGGTTTTCCCGGTAATCCGTATTTGCA (site GGGGCCCCTTG) | 0.407
GGGGCTCCATGGACCGGTTTTCCCGGTAATCCGTATTTGCA (site GGGGCGCCTTG) | 0.0195
GGGGCTCCATGGACCGGTTTTCCCGGTAATCCGTATTTGCA (site GGGGCTCCTTG) | 1.13
GGGGTAGCATGGACCGGTTTTCCCGGTAATCCGTATTTGTC (site GGGGTAGCTGA) | 2.71
GGGTAATCATGGACCGGTTTTCCCGGTAATCCGTATTTGAT (site GGGTAATCTAT) | 3.04
GGGTACGCATGGACCGGTTTTCCCGGTAATCCGTATTTGTA (site GGGTACGCTTA) | 2.47

Sequence | recombinant UMI read abundance (log10)
GGGTAGACATGGACCGGTTTTCCCGGTAATCCGTATTTGCC (site GGATAGACTGG) | 2.81
GGGTAGACATGGACCGGTTTTCCCGGTAATCCGTATTTGCC (site GGCTAGACTGG) | 0
GGGTAGACATGGACCGGTTTTCCCGGTAATCCGTATTTGCC (site GGGTAGACTGG) | 2.39
GGGTAGACATGGACCGGTTTTCCCGGTAATCCGTATTTGCC (site GGTTAGACTGG) | 0.949
GGTAATTCATGGACCGGTTTTCCCGGTAATCCGTATTTGGT (site GGTAATTCTAC) | 1.18
GGTACATCATGGACCGGTTTTCCCGGTAATCCGTATTTGTT (site GGTACATCTAA) | 0.0632
GGTACATCATGGACCGGTTTTCCCGGTAATCCGTATTTGTT (site GGTACCTCTAA) | 0.00401
GGTACATCATGGACCGGTTTTCCCGGTAATCCGTATTTGTT (site GGTACGTCTAA) | 0.0133
GGTACATCATGGACCGGTTTTCCCGGTAATCCGTATTTGTT (site GGTACTTCTAA) | 0.00584
GGTACGTCATGGACCGGTTTTCCCGGTAATCCGTATTTGGA (site GGTACGTCTTC) | 0.695
GGTACTCCATGGACCGGTTTTCCCGGTAATCCGTATTTGTA (site GGTACTCCTTA) | 0.301
GGTACTGCATGGACCGGTTTTCCCGGTAATCCGTATTTGGA (site GGTACTGCTTC) | 0.135
GGTACTTCATGGACCGGTTTTCCCGGTAATCCGTATTTGTT (site GGTACATCTAA) | 0.0111
GGTACTTCATGGACCGGTTTTCCCGGTAATCCGTATTTGTT (site GGTACCTCTAA) | 0.0128
GGTACTTCATGGACCGGTTTTCCCGGTAATCCGTATTTGTT (site GGTACGTCTAA) | 0.011
GGTACTTCATGGACCGGTTTTCCCGGTAATCCGTATTTGTT (site GGTACTTCTAA) | 0.456
GGTAGGTCATGGACCGGTTTTCCCGGTAATCCGTATTTGTT (site GGTAAGTCTAA) | 0.00393
GGTAGGTCATGGACCGGTTTTCCCGGTAATCCGTATTTGTT (site GGTACGTCTAA) | 0.0163
GGTAGGTCATGGACCGGTTTTCCCGGTAATCCGTATTTGTT (site GGTAGGTCTAA) | 0.00338
GGTAGGTCATGGACCGGTTTTCCCGGTAATCCGTATTTGTT (site GGTATGTCTAA) | 0.0159
GGTAGTGCATGGACCGGTTTTCCCGGTAATCCGTATTTGCC (site GGTAGTGCTGG) | 1.61
GGTATGGCATGGACCGGTTTTCCCGGTAATCCGTATTTGCA (site GGTATGGCTTG) | 1.9
GGTCATCCATGGACCGGTTTTCCCGGTAATCCGTATTTGAA (site GGTCATCCTTT) | 0.0104
GGTCATTCATGGACCGGTTTTCCCGGTAATCCGTATTTGTG (site GGTCATTCTCA) | 1.05
GGTCCAACATGGACCGGTTTTCCCGGTAATCCGTATTTGAA (site GGTCCAACTTA) | 0.0074
GGTCCAACATGGACCGGTTTTCCCGGTAATCCGTATTTGAA (site GGTCCAACTTC) | 0.00549
